Assay results published in PMC6865181, “Role of L-Type Amino Acid Transporter 1 (LAT1) for the Selective Cytotoxicity of Sesamol in Human Melanoma Cells” (Molecules, 2019).
Like-named read-outs stand apart in the source and are kept apart here. Marks after values point to notes of the source that are not given here.

Legend:
[1] = stated in the introduction without reference; cited from earlier work
[2] = system: SK-MEL-2 cells; assay: Antiproliferative effect, neutral red uptake assay, SK-MEL-2 cells; format: cell-based, human
Procedure: (§1) The SK-MEL-2 and Vero cells (at 5 × 10^4 cells/well) were seeded separately into 96-well plates. After the cells were exposed to the tested compounds (200 µL) for 24 h, neutral red (50 µg/mL) (Sigma-Aldrich, St. Louis, MO, USA) was incorporated into the cells for 2 h. The cells were then washed with ice-cold PBS and lysed using 0.33% HCl in isopropanol. The absorbances of neutral red were measured at 540 nm with a reference wavelength of 660 nm using a UV-microplate reader (Perkin Elmer, Waltham, MA, USA). […] The selective index was calculated from the ratio of the IC50 of Vero and SK-MEL-2 cells.

[3] = target: T1, LAT1 (Homo sapiens, UniProt Q01650); assay: cell-based; details: SK-MEL-2; sesamol 0.1 mM, uptake equilibrium 10 min
Procedure: (§2) SK-MEL-2 and Vero cells were seeded separately into 24-well plates at 2 × 10^5 cells/well for 24 h. The media was removed, and the cells pre-incubated with HBSS pH 7.4 for 10 min. The cells were used for the following experiments.
(§3) Competitive inhibition of uptake of sesamol was done in both SK-MEL-2 and the Vero cells. […] The cells were washed twice with ice-cold PBS, solubilized in methanol, and centrifuged at 2400× g, at 4 °C for 20 min. The precipitated protein was re-solubilized by 0.1 M NaOH prior to protein determination. The sesamol content was quantified using HPLC assay. The cellular uptake of sesamol was calculated as per the C/M ratio.
(§4) Quantitative analysis of sesamol and L-dopa were performed using a Shimadzu HPLC (LC-2030C-3D) with a UV photodiode array detector (DAD) (Kyoto, Japan). The analysis was based on a BDS Hypersil C-18 column, (4.6 × 250 mm, 5 µm packing, Thermo Fisher Scientific, Waltham, MA, USA). The column temperature was set at 30 °C with a flow rate of 0.8 mL/min. The mobile phase for sesamol quantification was 70% methanol in water, vs. 20% methanol in water for L-dopa. The respective detection wavelength and elution time for sesamol and L-dopa was 297 nm and 280 nm and 4.2 and 4.5 min. The validated sesamol quantification conducted using sesamol spiked cell lysate with high selectivity and clear separation from the endogenous cell lysate as previously reported. The % bias and % precision was determined within and between days, each was maintained below 6%.

[4] = system: SK-MEL-2 cells; assay: Time-course of sesamol cellular uptake (distribution) in SK-MEL-2 cells; format: in vitro ADME, human
Procedure: (§5) The cells were used for the following experiments.
(§6) The cells were exposed to 1 mM (200 µL) sesamol and incubated at 37 °C at various times (0.5, 1, 3, 5, 10, and 15 min). The media was plated into 96-well plates prior to measuring the extracellular sesamol content by HPLC analysis. […] The sesamol content in 20 µL of cell lysate was quantified using HPLC assay as described in the analytical procedure.
(§7) The cellular uptake of sesamol was determined based on the sesamol content in cells (nmol/mg protein) to medium (nmol/µL) (expressed as C/M ratio, µL/mg protein). The linear regression of the C/M ratio from 0.5 to 3 min was performed (r^2 > 0.90); to give the initial distribution volume (µL/mg protein) from the y-intercept, and the initial uptake clearance (µL/min/mg protein) from the slope.

[5] = system: Vero cells; assay: Time-course of sesamol cellular uptake (distribution) in Vero cells; format: in vitro ADME, African green monkey
Procedure: as §5, §6, §7

[6] = system: SK-MEL-2 cells; assay: Uptake kinetics of sesamol at 37 °C and 4 °C in SK-MEL-2 cells; details: for Pd (sesamol passive diffusion) / Vmax (sesamol uptake) / Km: 1 min; for Km: read-out: Km (sesamol uptake)
Procedure: as §2
(§8) The cells were pre-incubated with HBSS pH 7.4 at 37 °C and at 4 °C both for 10 min. The cells were treated with sesamol (200 µL; range, 31.5 to 1,000 μM) and incubated under each condition for another 1 min, to exclude the influence of efflux or metabolism processes as per the previous report. The uptake process at 37 °C represented the total uptake of sesamol in the cells, including both carrier-mediated transport and passive transport; whereas the uptake process at 4 °C represented mainly passive transport.
(§9) The uptake kinetics was fitted using Michaelis-Menten kinetics (non-linear least square kinetics model) (r^2 > 0.90) Equation (1) that allowed estimation of Vmax, Km, and Pd values.
(§10) V = (Vmax × [S])/(Km + [S]) + Pd × [S](1)
(§11) V = uptake velocity at a certain amount of substrate (nmol/min/mg protein)
(§12) Vmax = maximum uptake velocity (nmol/min/mg protein)
(§13) [S] = concentration of sesamol at extracellular compartment (µM)
(§14) Km = concentration of sesamol at half of Vmax (µM)
(§15) Pd = passive lipoidal diffusion uptake rate (µL/min/mg protein)
(§16) The rate to reach total uptake clearance of carrier-mediated transport was obtained from the ratio of Vmax to Km (µL/min/mg protein). The total uptake clearance of the process (µL/min/mg protein) was obtained from (Vmax /Km) + Pd.

[7] = system: LAT1; assay: LAT1 function: competitive uptake of L-dopa in Vero cells; format: cell-based, African green monkey; details: L-dopa 0.1 mM, 10 min
Procedure: as §2
(§17) Sesamol was also investigated for its affinity to LAT1. […] Competitive uptake was performed for 10 min then the cells were washed twice with ice-cold PBS. The L-dopa was solubilized by 0.1 M HCl and the cell lysate (25 µL) was pipetted for protein determination. […] Intracellular and extracellular L-dopa was quantified by the HPLC assay. The L-dopa uptake was represented as the distribution volume of L-dopa in a cell to media ratio (C/M ratio) as calculated in Section 4.3.1.
as §4

[8] = system: Vero cells; assay: Antiproliferative effect, neutral red uptake assay, Vero cells; format: cell-based, African green monkey; details: Vero cells, 24 h exposure, neutral red; read-out: IC50 (cell viability)
Procedure: as §1

[9] = system: Vero cells; assay: Uptake kinetics of sesamol at 37 °C and 4 °C in Vero cells; details: for Pd (sesamol passive diffusion) / Vmax (sesamol uptake): 1 min
Procedure: as §2, §8, §9, §10, §11, §12, §13, §14, §15, §16

[10] = system: LAT1; details: Vero cells; sesamol 0.1 mM, uptake equilibrium 10 min
Procedure: as §2, §3, §4

[11] = target: T1, LAT1; assay: LAT1 function: competitive uptake of L-dopa in SK-MEL-2 cells; format: cell-based; details: SK-MEL-2, L-dopa 0.1 mM, 10 min
Procedure: as §2, §17
The analysis was based on a BDS Hypersil C-18 column, (4.6 × 250 mm, 5 µm packing, Thermo Fisher Scientific, Waltham, MA, USA). The column temperature was set at 30 °C with a flow rate of 0.8 mL/min. The mobile phase for sesamol quantification was 70% methanol in water, vs. 20% methanol in water for L-dopa. […] The validated sesamol quantification conducted using sesamol spiked cell lysate with high selectivity and clear separation from the endogenous cell lysate as previously reported. The % bias and % precision was determined within and between days, each was maintained below 6%.

[12] = 1 mM sesamol, 37 °C, linear regression 0.5-3 min
[13] = competitor (BCH, L-tyrosine, sesamol 1 mM; L-leucine, L-alanine 2 mM; melphalan 0.05 mM)
[14] = competitor at the concentration printed in the row

T1 sequence (Q01650 whole entry): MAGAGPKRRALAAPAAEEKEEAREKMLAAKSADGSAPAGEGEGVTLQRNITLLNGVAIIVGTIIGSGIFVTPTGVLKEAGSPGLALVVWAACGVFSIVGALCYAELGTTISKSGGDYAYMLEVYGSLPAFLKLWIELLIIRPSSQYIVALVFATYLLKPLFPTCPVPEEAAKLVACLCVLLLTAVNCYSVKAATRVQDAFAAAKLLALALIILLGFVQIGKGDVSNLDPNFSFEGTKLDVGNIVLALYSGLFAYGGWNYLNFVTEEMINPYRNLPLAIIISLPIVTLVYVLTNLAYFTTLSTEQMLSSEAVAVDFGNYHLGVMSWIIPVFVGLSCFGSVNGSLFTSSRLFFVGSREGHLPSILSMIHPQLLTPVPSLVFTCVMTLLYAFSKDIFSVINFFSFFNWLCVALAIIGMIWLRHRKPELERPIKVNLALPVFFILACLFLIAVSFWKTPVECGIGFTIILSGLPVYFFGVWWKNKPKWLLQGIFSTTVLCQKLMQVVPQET
T1 sequence (P08195 102-630 partner): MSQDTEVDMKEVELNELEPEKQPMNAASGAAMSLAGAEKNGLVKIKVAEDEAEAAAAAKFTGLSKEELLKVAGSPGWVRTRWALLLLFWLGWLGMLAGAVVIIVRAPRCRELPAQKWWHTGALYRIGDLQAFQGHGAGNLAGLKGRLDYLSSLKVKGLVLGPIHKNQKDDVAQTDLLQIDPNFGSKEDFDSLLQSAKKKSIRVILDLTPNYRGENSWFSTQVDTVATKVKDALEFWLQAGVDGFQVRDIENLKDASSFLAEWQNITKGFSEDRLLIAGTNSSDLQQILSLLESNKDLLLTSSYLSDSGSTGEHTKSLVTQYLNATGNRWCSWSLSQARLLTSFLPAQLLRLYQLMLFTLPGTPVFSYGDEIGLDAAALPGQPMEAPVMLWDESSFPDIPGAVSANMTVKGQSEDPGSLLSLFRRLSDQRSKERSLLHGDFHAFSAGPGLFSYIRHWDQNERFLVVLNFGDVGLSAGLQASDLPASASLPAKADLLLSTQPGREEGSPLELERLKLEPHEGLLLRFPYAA

For `Oc1ccc2c(c1)OCO2` [Sesamol], the logP [1] is listed as 1.29, the “Selective Index” value [2] is listed as 3.4 and the IC50 ([2]; SK-MEL-2, 24 h exposure, neutral red, read-out: IC50 (cell viability)) is listed as 2 ± 0.1 mM. For the same molecule, the “Sesamol Distribution Volume, control (no competitor)” value [3] was 0% (23.2 ± 2.1)^a µL/mg Protein, the initial distribution volume [4, 12] was 6.0 ± 0.4 µL/mg protein and the initial uptake clearance [4, 12] was 2.6 ± 0.1 µL/min/mg protein. For the same molecule, the “suppression of sesamol uptake at 4 °C compared to 37 °C” value ([4]; 30 s) was 45%, the “time at which sesamol uptake reached a steady state” value ([4]; 37 °C) was “approximately 10 min” and the “suppression of sesamol uptake at 4 °C compared to 37 °C” value ([4]; 1 min) was 61%. The initial distribution volume [5, 12] was 5.7 ± 0.4 µL/mg protein, the initial uptake clearance [5, 12] was 1.3 ± 0.2 µL/min/mg protein and the “reduction in sesamol distribution volume at 4 °C compared to 37 °C” value ([5]; 30 s) was 33%. The “time at which sesamol uptake reached a steady state” value ([5]; 37 °C) was “about 5 min”, the “reduction in sesamol distribution volume at 4 °C compared to 37 °C” value ([5]; 1 min) was 23% and the “carrier-mediated uptake clearance in SK-MEL-2 cells relative to Vero cells” value ([6]; 37 °C) was 3.4 fold. The “Pd (sesamol passive diffusion)” value ([6]; SK-MEL-2, 4 °C) was 2.7 ± 0.1^a µL/min/mg, the “Vmax (sesamol uptake)” value ([6]; SK-MEL-2, 4 °C) was 0.3 ± 0.1^b nmol/min/mg and the “Pd (passive diffusion of sesamol)” value ([6]; SK-MEL-2, 37 °C) was 2.3 ± 0.2 µL/min/mg protein. The “Vmax (carrier-mediated transport of sesamol)” value ([6]; SK-MEL-2, 37 °C) was 4.2 ± 0.1 nmol/min/mg protein, the “carrier-mediated transport as share of total uptake clearance” value ([6]; SK-MEL-2, 37 °C) was 89% and the “Pd (sesamol passive diffusion)” value ([6]; SK-MEL-2, 37 °C, sesamol alone) was 2.3 ± 0.2^b µL/min/mg. For the same molecule, the “Vmax (sesamol uptake)” value ([6]; SK-MEL-2, 37 °C, sesamol alone) was 4.2 ± 0.1^a nmol/min/mg, the Km ([6]; SK-MEL-2, 4 °C) was 26.8 ± 9.8 µM and the Km ([6]; SK-MEL-2, 37 °C, sesamol alone) was 225 ± 19.3 µM. For the same molecule, the “Percent Inhibition of L-Dopa Distribution Volume” value [7, 13] was 33%, the “L-Dopa Distribution Volume in presence of the compound” value [7, 14] was 103.9 ± 9.2 µL/mg Protein and the IC50 [8] was 6.7 ± 0.2 mM. For the same molecule, the “Pd (sesamol passive diffusion)” value ([9]; 4 °C) was 2.4 ± 0.3^a µL/min/mg, the “Vmax (sesamol uptake)” value ([9]; 4 °C) was 0.4 ± 0.1^b nmol/min/mg and the “Pd (passive diffusion of sesamol)” value ([9]; 37 °C) was 2.1 ± 0.1 µL/min/mg protein. The “Vmax (carrier-mediated transport of sesamol)” value ([9]; 37 °C) was 0.9 ± 0.0 nmol/min/mg protein, the “carrier-mediated transport as share of total uptake clearance” value ([9]; 37 °C) was 72% and the “Pd (sesamol passive diffusion)” value ([9]; 37 °C, sesamol alone) was 2.1 ± 0.1^a µL/min/mg. For the same molecule, the “Vmax (sesamol uptake)” value ([9]; 37 °C, sesamol alone) was 0.9 ± 0.0^a nmol/min/mg, the Km ([9]; read-out: Km (sesamol uptake), 4 °C, 1 min) was 66.1 ± 20 µM and the Km ([9]; read-out: Km (sesamol uptake), 37 °C, sesamol alone, 1 min) was 160 ± 18.4 µM. The “Sesamol Distribution Volume, control (no competitor)” value [10] was 0% (17.9 ± 1.7)^a µL/mg Protein, the “Percent Inhibition of L-Dopa Distribution Volume” value [11, 13] was 44% and the “L-Dopa Distribution Volume in presence of the compound” value [11, 14] was 207.6 ± 31.5 µL/mg Protein.
